Measurements reported in publication PMC7450057, “Enhancing intracellular accumulation and target engagement of PROTACs with reversible covalent chemistry” (Nature Communications, 2020).
Where “and” joins values, the source holds several entries; their conditions need not be identical. Equal values may be shown once.

Columns and labels:
[1] = target: truncated Cereblon protein (Homo sapiens, UniProt Q96SW2); assay: CRBN binding assay (fluorescence quenching); settings: for Fluorescence Intensity: Supplementary Figure 11, replicates
Procedure: The Kd values of compounds to CRBN were measured based on fluorescence quenching after compounds binding to CRBN. […] All the compounds were dissolved in DMSO (10 mM) as stock solutions. The final drug concentration is 100 nM. […] Fluorescence intensity values for control wells (assay buffer only) were subtracted from each data point prior to analysis. The Kd was calculated using GraphPad Prism with the following equation curve fit. I=I0−If×Kd/P0+Kd+If

[2] = target: T1, full-length BTK protein (Homo sapiens, UniProt Q06187); assay: BTK binding assay (Kd, Eurofins DiscoverX)
T1 construct: Kd was measured using the full-length BTK protein by Eurofins DiscoverX; T7 phage fusion or DNA tag for qPCR (generic vendor protocol); purchased Eurofins DiscoverX
Procedure: The dissociation equilibrium constant Kd was measured using the full-length BTK protein by Eurofins DiscoverX according to the following protocol: kinase-tagged T7 phage strains were prepared in an E. coli host derived from the BL21 strain. E. coli were grown to log-phase and infected with T7 phage and incubated with shaking at 32 °C until lysis. The lysates were centrifuged and filtered to remove cell debris. The remaining kinases were produced in HEK-293 cells and subsequently tagged with DNA for qPCR detection. […] The liganded beads were blocked with excess biotin and washed with blocking buffer (SeaBlock (Pierce), 1% BSA, 0.05% Tween 20, 1 mM DTT) to remove unbound ligand and to reduce non-specific binding. […] Test compounds were prepared as 111X stocks in 100% DMSO. […] The compounds were then diluted directly into the assays such that the final concentration of DMSO was 0.9%. All reactions performed in polypropylene 384-well plate. Each was a final volume of 0.02 mL. […] The kinase concentration in the eluates was measured by qPCR. For kinase-binding constant determination, an 11-point 3-fold serial dilution of each test compound was prepared in 100% DMSO at 100x final test concentration and subsequently diluted to 1x in the assay (final DMSO concentration = 1%). […] Binding constants (Kd values) were calculated with a standard dose-response curve using the Hill equation: Response=Background+Signal−Background/1+KdHillSlope/Dose^HillSlope
The Hill Slope was set to −1. Curves were fitted using a non-linear least square fit with the Levenberg-Marquardt algorithm.

[3] = target: BTK (Homo sapiens, UniProt Q06187); assay: In vitro BTK kinase assay (PhosphoSens); type: biochemical; design: purchased SignalChem B10-10H-10
Procedure: BTK kinase activity inhibition IC50 was measured by PhosphoSens® Kinase Assay Kit (Assay Quant Technologies Inc., Cat.# CSKS-AQT0101K). […] Active recombinant BTK was purchased from SignalChem (Cat.# B10-10H-10). All the drugs (3 warhead control and 4 PROTACs) were dissolved in DMSO (10 mM). […] To calculate the IC50, subtract the background fluorescence determined with the “no kinase” control for each time point from the total signal to obtain corrected Relative Fluorescence Units (RFU) values. Plot the corrected RFU vs. Time for each inhibitor concentration and determine the initial reaction rates (slope of the linear portion) for each progress curve for each inhibitor concentration. Then plot velocity (RFU corrected/minute) vs [inhibitor] and determine the IC50 using a 4-parameter logistic fit.

[4] = target: T2, NanoLuc-CRBN fusion (Homo sapiens, UniProt Q96SW2); assay: NanoBRET CRBN in-cell target engagement assay; type: cell-based; settings: for NanoBRET(%): Figure 3b
T2 construct: host or cells: HEK 293T/17
Procedure: The target engagement assay for BTK or CRBN was from Promega (BTK kit, Cat. No. N2500; CRBN kit, Cat. No. CS1810C136) and was performed according to the manufacture’s instruction with some modifications. […] After 2 h incubation, the 3X Nano-Glo® Substrate with NanoLuc® extracellular inhibitor were added to cells and developed for 3 min at room temperature. BRET signals were collected using a BioTek SYNERGY H1 microplate reader equipped with a 450/80-nm BP filter for donor emission and a 610-nm LP filter for acceptor emission. BRET Ratio was calculated with the equation: [(Acceptor sample/Donor sample)–(Acceptor no tracer control/Donor no tracer control)] × 1000. The IC50 of the compound against its BTK or CRBN tracer was calculated using GraphPad Prism software.

Sequence of truncated Cereblon protein (Q96SW2 318-426): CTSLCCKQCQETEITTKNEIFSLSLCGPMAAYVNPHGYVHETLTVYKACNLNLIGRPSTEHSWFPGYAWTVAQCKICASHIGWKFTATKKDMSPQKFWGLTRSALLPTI
T2 sequence (Q96SW2 whole entry, the tested form may be a part): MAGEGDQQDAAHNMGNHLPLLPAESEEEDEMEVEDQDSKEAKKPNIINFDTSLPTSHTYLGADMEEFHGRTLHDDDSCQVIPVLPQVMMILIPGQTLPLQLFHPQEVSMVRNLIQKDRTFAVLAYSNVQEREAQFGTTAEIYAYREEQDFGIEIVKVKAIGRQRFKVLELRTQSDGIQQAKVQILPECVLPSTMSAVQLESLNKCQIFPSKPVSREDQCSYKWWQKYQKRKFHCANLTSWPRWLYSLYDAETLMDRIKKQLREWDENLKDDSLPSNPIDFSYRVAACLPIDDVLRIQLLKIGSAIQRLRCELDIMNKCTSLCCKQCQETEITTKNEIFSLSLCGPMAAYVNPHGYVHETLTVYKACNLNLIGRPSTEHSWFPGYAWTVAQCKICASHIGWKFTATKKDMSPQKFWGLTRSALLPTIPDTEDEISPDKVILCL
T2 sequence (Q16531 whole entry partner, the tested form may be a part): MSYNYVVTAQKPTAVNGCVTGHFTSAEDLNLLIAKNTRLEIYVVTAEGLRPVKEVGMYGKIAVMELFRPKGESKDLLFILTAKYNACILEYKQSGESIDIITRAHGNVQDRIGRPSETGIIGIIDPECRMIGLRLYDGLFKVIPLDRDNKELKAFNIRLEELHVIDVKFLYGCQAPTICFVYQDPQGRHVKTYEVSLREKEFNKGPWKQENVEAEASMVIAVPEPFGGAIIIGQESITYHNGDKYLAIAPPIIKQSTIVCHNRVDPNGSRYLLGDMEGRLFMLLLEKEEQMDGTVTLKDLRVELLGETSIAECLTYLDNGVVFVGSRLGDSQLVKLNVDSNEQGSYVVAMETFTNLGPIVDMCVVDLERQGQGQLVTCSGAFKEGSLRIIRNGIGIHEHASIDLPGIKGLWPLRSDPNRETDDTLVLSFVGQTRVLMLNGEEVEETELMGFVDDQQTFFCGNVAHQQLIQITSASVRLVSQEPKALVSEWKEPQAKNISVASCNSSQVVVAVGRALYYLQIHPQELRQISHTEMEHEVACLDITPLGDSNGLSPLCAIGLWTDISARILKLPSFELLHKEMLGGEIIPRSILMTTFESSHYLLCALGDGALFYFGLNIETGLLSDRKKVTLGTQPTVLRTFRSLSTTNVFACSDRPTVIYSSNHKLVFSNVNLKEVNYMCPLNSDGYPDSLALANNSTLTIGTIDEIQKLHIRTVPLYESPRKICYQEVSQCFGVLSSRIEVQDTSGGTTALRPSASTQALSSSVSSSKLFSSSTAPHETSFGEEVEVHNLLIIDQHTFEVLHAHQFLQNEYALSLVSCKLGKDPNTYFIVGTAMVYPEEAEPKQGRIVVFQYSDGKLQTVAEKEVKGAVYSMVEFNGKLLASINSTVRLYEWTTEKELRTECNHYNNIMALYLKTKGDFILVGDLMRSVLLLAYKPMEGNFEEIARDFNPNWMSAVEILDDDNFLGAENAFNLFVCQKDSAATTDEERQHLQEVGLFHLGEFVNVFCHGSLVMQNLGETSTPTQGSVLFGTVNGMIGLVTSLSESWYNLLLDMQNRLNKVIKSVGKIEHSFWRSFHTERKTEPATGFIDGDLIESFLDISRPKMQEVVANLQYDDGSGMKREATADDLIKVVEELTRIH
Sequence of BTK (Q06187 whole entry): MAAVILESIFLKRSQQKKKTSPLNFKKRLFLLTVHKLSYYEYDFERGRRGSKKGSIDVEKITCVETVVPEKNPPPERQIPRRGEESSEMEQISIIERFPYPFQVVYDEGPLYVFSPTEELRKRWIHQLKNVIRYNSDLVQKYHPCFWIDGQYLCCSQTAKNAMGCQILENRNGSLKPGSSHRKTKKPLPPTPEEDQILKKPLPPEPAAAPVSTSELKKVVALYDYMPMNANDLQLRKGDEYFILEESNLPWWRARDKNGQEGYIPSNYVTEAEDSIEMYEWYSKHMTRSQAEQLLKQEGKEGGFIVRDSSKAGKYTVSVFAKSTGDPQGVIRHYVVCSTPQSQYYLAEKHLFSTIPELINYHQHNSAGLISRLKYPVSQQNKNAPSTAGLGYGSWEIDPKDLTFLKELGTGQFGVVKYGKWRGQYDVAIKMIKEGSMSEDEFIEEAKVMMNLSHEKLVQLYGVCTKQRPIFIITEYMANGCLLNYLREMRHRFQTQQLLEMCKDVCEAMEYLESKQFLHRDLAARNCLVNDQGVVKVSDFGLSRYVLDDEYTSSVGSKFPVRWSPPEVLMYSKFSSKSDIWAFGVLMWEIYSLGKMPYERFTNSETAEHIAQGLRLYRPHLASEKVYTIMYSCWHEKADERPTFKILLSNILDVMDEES
T1 sequence (Q06187 whole entry, the tested form may be a part): as the sequence (Q06187 whole entry) above

Fluorescence Intensity ([1]; CRBN 0 μM): 2824.6 and 2800.6 and 2664.6
Fluorescence Intensity ([1]; CRBN 0.734375 μM): 1780.6 and 1887.6 and 2192.6
Fluorescence Intensity ([1]; CRBN 1.46875 μM): 1780.6 and 1687.6 and 2021.6
Fluorescence Intensity ([1]; CRBN 2.9375 μM): 1637.6 and 1410.6 and 1592.6
Fluorescence Intensity ([1]; CRBN 5.875 μM): 1188.6 and 1223.6 and 1189.6
Fluorescence Intensity ([1]; CRBN 11.75 μM): 912.6 and 875.6 and 944.6
Fluorescence Intensity ([1]; CRBN 23.5 μM): 936.6 and 917.6 and 925.6
Kd ([1]; truncated Cereblon protein, fluorescence quenching, triplicates, read-out: Kd): 1.5 µM
Signal ([2]; BTK_+DTT, compound concentration 0.00491 nM): 2.11E-05 and 2.14E-05
Signal ([2]; BTK_+DTT, compound concentration 0.0147 nM): 1.62E-05 and 1.97E-05
Signal ([2]; BTK_+DTT, compound concentration 0.0442 nM): 2.15E-05 and 2.03E-05
Signal ([2]; BTK_+DTT, compound concentration 0.133 nM): 2.11E-05 and 2.33E-05
Signal ([2]; BTK_+DTT, compound concentration 0.398 nM): 1.86E-05 and 1.95E-05
Signal ([2]; BTK_+DTT, compound concentration 1.19 nM): 1.43E-05 and 1.52E-05
Signal ([2]; BTK_+DTT, compound concentration 3.58 nM): 1.06E-05 and 1.08E-05
Signal ([2]; BTK_+DTT, compound concentration 10.7 nM): 5.42E-06 and 5.34E-06
Signal ([2]; BTK_+DTT, compound concentration 32.2 nM): 1.75E-06 and 1.73E-06
Signal ([2]; BTK_+DTT, compound concentration 96.7 nM): 3.47E-07 and 3.72E-07
Signal ([2]; BTK_+DTT, compound concentration 290 nM): 8.87E-08 and 9.98E-08
Signal ([2]; BTK_-DTT, compound concentration 0.0152 nM): 1.52E-05 and 1.19E-05
Signal ([2]; BTK_-DTT, compound concentration 0.0457 nM): 1.62E-05 and 1.68E-05
Signal ([2]; BTK_-DTT, compound concentration 0.137 nM): 1.78E-05 and 1.76E-05
Signal ([2]; BTK_-DTT, compound concentration 0.412 nM): 1.29E-05 and 1.60E-05
Signal ([2]; BTK_-DTT, compound concentration 1.23 nM): 1.07E-05 and 1.11E-05
Signal ([2]; BTK_-DTT, compound concentration 3.7 nM): 7.15E-06 and 6.34E-06
Signal ([2]; BTK_-DTT, compound concentration 11.1 nM): 3.52E-06 and 2.70E-06
Signal ([2]; BTK_-DTT, compound concentration 33.3 nM): 1.15E-06
Signal ([2]; BTK_-DTT, compound concentration 100 nM): 3.02E-07 and 3.08E-07
Signal ([2]; BTK_-DTT, compound concentration 300 nM): 1.03E-07 and 9.31E-08
Kd ([2]; full-length BTK, absence of DTT in the buffer, duplicates): 0.003 µM
IC50 ([3]; AssayQuant BTK assay kit, 2.5 nM BTK, 1 mM ATP, duplicates, read-out: BTK inhibition IC50): 0.0008 µM
activity at 2.56 pM ([3]; Supplementary Figure 5, drug concentration 2.56 pM, replicates, read-out: Inhibition(%)): 86.2%
activity at 12.8 pM ([3]; Supplementary Figure 5, drug concentration 12.8 pM, replicates, read-out: Inhibition(%)): 77.7%
activity at 64 pM ([3]; Supplementary Figure 5, drug concentration 64 pM, replicates, read-out: Inhibition(%)): 78.1%
activity at 0.00032 µM ([3]; Supplementary Figure 5, drug concentration 320 pM, replicates, read-out: Inhibition(%)): 65.7%
activity at 0.0016 µM ([3]; Supplementary Figure 5, drug concentration 1600 pM, replicates, read-out: Inhibition(%)): 28%
activity at 0.008 µM ([3]; Supplementary Figure 5, drug concentration 8000 pM, replicates, read-out: Inhibition(%)): 4.02%
activity at 0.2 µM ([3]; Supplementary Figure 5, drug concentration 200000 pM, replicates, read-out: Inhibition(%)): 0.667%
activity at 1 µM ([3]; Supplementary Figure 5, drug concentration 1000000 pM, replicates, read-out: Inhibition(%)): 2.16%
diminished BTK inhibitory activity compared with corresponding warhead control ([3]; ratio of IC50 values): < 3 fold
NanoBRET(%) ([4]; 1.00E-05 M, triplicates): 14.8662% and 22.7538% and 22.1529%
NanoBRET(%) ([4]; 1.60E-08 M, triplicates): 80.9317% and 101.051% and 94.8942%
NanoBRET(%) ([4]; 2.00E-06 M, triplicates): 31.3092% and 33.6262% and 37.1463%
NanoBRET(%) ([4]; 3.20E-09 M, triplicates): 91.4483% and 90.0848%
NanoBRET(%) ([4]; 4.00E-07 M, triplicates): 56.7638% and 59.2904%
NanoBRET(%) ([4]; 8.00E-08 M, triplicates): 86.864% and 89.7074% and 93.5853%
IC50 ([4]; HEK-293 cells, CRBN tracer 0.5 µM, triplicates, read-out: CRBN target engagement IC50,TE): 0.86 µM
K′P,D (relative intracellular accumulation coefficient) ([4]; Kd (CRBN)/IC50,TE (CRBN)): 1.7
CRBN engagement ([4]; at 400 nM): ~ 40%
intracellular accumulation of RC-1 relative to the compound ([4]; from K′P,D values, CRBN (Table 2)): 10 fold
CRBN target engagement IC50 relative to that of RC-1 ([4]; ratio compound/RC-1): 3 fold
Compound: CN(CC=CC(=O)N1CCCC(n2nc(-c3ccc(Oc4ccccc4)cc3)c3c(N)ncnc32)C1)CCCNC(=O)CNc1cccc2c1C(=O)N(C1CCC(=O)NC1=O)C2=O (stereo not drawn) [IRC-1]
